PMC6158327, “Negative Allosteric Modulators of mGlu7 Receptor as Putative Antipsychotic Drugs” (Frontiers in Molecular Neuroscience, 2018)

What was measured:
[1] = Pharmacokinetic study, plasma concentration after i.p. injection; assay type: in vivo; conditions: Albino Swiss, ip, mouse, 10 mg/kg i.p.; for Tmax: 10 mg/kg
Method: The mice were then perfused with 0.1M PBS to remove remaining blood from the body, and the brains were taken out for the analysis. Blood was centrifuged at 2000 rpm for 10 min at 4°C, and the plasma was collected and frozen at -80°C for further analysis.
Plasma and tissue samples from all drug-treated animals were thawed at room temperature prior to use. Standard protocol of sample preparation: 200 μl acetonitrile was added to the eppendorfs with 50 μl of studied plasma samples or tissue homogenate. Samples were mixed for 5 min on a mixer at 25°C and 1400 rpm. Tubes were then centrifuged at 2000 × g for 15 min at 4°C. About 180 μl of each supernatant was transferred into a plate well. Finally, each sample was injected into the column.
In calibration curve – serial dilution method, plasma was spiked with standard at different concentration levels. Acetonitrile was added. Mixed, centrifuged supernatant was taken.
Plasma and tissue samples from all drug-treated animals at selected time points are analyzed using previously developed a non-validated liquid chromatography-tandem mass spectrometry (LC-MS)/MS method.
LC/MS analysis was carried on a Bruker amaZon SL mass spectrometer using positive/ negative ion ESI mode. Chromatographic separation was achieved on a Ascentis Express C18 column, (5 cm × 2.1 mm, […], Supelco Technologies) at room temperature with a thermostatted column oven. A gradient elution of eluents A [acetonitrile (LiChrosolv, Reag. Ph Eur) +0.1% formic acid (Sigma–Aldrich, 98–100%)] and B (water +0.1% formic acid) was used for separation. The flow rate was set at 1 ml/min. The injection volume was 20 μl, and the time of injection was 4 min.
An Ion trap mass spectrometer (Bruker amaZon SL) was equipped with an electrospray source, operating in the positive/negative ion mode. Data were collected and processes using Bruker Quant Analysis software. Quantification of analytes was performed in SIM mode.

Cytochrome P450 2B6 = molecular target: T1, Cytochrome P450 2B6 (Homo sapiens, UniProt P20813); test: Cytochrome P450 inhibition, 2B6; assay type: in vitro ADME
T1 sequence (P20813 1-491): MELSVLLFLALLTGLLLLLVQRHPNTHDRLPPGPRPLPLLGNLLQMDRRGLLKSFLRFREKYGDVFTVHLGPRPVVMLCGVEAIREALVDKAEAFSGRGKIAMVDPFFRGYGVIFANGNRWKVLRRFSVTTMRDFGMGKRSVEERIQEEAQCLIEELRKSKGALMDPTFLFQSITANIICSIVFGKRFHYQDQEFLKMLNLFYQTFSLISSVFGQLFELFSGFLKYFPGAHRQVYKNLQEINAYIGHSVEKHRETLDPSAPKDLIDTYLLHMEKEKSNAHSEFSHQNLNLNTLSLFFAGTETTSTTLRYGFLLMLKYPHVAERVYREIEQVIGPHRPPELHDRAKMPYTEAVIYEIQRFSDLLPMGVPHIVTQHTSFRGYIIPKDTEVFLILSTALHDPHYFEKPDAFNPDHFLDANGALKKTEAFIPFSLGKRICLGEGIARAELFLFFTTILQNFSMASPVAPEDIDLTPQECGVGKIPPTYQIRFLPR

Cytochrome P450 2C9 = Cytochrome P450 2C9 (Homo sapiens, UniProt P11712); test: Cytochrome P450 inhibition, 2C9; assay type: in vitro ADME
Cytochrome P450 2C19 = Cytochrome P450 2C19 (Homo sapiens, UniProt P33261); test: Cytochrome P450 inhibition, 2C19; assay type: in vitro ADME
[2] = tested on: MK-801-induced social interaction deficits; test: Social interaction test (MK-801-induced deficits); assay type: in vivo, Albino Swiss mice; conditions: 30 min before MK-801 (0.3 mg/kg), mice
Method: The method was adapted from [de Moura Linck et al., 2008] and [Woźniak et al., 2016b]. After the 2-day habituation trial (10 min/day) a pair of mice was placed in the open field for 5 min. The social interactions between two mice were determined based on the total time spent participating in social behavior such as genital investigation, sniffing, chasing, and fighting each other. The total number of social episodes was also measured. The test was video-recorded and viewed by a trained observer.

[3] = tested on: prepulse-induced inhibition of the acoustic startle response; test: Prepulse inhibition of the acoustic startle response; assay type: in vivo, Wistar rats; conditions: rats; for Effect on MK-801-induced disruption of prepulse inhibition: 30 min prior to MK-801 (0.3 mg/kg)
Method: The procedure was performed according to [Czyrak et al., 2003]. On the day before the experiment, the animals were subjected to a single startle session consisting of two trials, each presented 20 times during the session. During the first trial, a 120 dB, 40 ms pulse was presented, and on the second trial this pulse was preceded by a 75 dB, 20 ms prepulse. On the day of the experiment, the animals were habituated to the background white noise (65 dB) for 5 min (which continued throughout the test), after that the startle session was carried out as described above. Startle response amplitude was defined as the difference between the maximum force detected during a recording window and the force measured immediately before the stimulus onset (the threshold was set at 10 g). For each animal, the amplitudes were averaged separately for each type of trial. The PPI was calculated as the difference between the amplitudes of the pulse (P) and the prepulse + pulse (PP+P), divided by the amplitude of the pulse alone [([P - (PP + P)]/P)×100].

rotarod performance = test: Rotarod test (motor coordination); assay type: in vivo, Albino Swiss mice; conditions: 5, 15, and 30 mg/kg i.p., 30 min before the test trial, mice
Method: The animals were trained for 3 consecutive days at the speed of 18 rpm, one session per day for 3 min. If a mice fell during the habituation period, it was placed back on the apparatus. On the following day, the test trial was performed. After the mice were placed on the apparatus (Mouse Rota-Rod NG, UGO BASILE S.R.L.) moving at the speed of 12 rpm, the accelerating mode was started (maximum speed – 24 rpm). The latency to fall was measured during 3-min test session.

Cytochrome P450 2C9, sequence (P11712 whole entry): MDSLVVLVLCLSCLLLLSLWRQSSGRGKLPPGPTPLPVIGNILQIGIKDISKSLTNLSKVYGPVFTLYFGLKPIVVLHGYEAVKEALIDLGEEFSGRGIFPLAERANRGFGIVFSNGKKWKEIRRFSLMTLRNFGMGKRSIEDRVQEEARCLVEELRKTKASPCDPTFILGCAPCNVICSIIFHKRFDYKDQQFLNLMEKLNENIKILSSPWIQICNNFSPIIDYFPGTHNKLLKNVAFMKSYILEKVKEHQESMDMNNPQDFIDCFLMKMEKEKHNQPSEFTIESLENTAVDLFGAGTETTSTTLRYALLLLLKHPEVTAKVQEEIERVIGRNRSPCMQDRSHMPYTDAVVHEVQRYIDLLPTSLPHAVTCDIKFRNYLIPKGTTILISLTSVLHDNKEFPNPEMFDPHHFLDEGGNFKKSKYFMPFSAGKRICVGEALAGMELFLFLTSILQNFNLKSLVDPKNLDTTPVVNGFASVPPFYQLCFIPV
Cytochrome P450 2C19, sequence (P33261 whole entry): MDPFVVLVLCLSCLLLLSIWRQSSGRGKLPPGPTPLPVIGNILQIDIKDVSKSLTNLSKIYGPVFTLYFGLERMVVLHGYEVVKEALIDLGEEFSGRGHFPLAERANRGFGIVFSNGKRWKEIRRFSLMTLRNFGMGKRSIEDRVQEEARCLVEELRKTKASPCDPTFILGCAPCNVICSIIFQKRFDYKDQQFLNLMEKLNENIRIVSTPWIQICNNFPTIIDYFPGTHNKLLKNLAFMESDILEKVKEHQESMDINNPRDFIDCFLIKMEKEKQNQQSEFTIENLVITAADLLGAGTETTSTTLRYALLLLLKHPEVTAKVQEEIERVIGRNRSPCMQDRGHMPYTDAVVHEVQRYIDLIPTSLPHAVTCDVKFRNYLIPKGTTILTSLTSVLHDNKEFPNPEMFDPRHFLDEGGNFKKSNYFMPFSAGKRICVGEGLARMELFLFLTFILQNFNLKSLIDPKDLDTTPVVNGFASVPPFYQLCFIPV

SMILES	AUC [1] [µM·h]	Cmax [1] [µM]	half-life [1] [min]	Tmax [1] [min]	IC50 (Cytochrome P450 2B6) [µM]	IC50 (Cytochrome P450 2C9) [µM]	IC50 (Cytochrome P450 2C19) [µM]	Effect on MK-801-induced reduction of duration of social interaction ([2]; 5 mg/kg i.p.)	Effect on MK-801-induced reduction of number of social episodes ([2]; 5 mg/kg i.p.)	Effect on MK-801-induced reduction of duration of social interaction ([2]; 15 mg/kg i.p.)	Effect on MK-801-induced reduction of number of social episodes ([2]; 15 mg/kg i.p.)	Effect on MK-801-induced disruption of prepulse inhibition ([3]; 2.5 mg/kg)	Motor impairments in the rotarod test (latency to fall) (rotarod performance)	Effect on MK-801-induced reduction of number of social episodes ([2]; 5, 10, and 20 mg/kg i.p.)	Effect on MK-801-induced reduction of time of interaction ([2]; 5, 10, and 20 mg/kg i.p.)	Prepulse-induced inhibition of the acoustic startle response, drug given alone ([3]; 10 mg/kg given alone, effect not statistically significant)	Effect on MK-801-induced disruption of prepulse inhibition ([3]; all doses (5, 10, and 15 mg/kg))
CCc1nc2c(o1)CC(c1ccc(C)cc1C)CC2=O (stereo not shown) [ADX71743, 6-(2,4-Dimethylphenyl)-2-ethyl-6,7-dihydro-4(5H)-benzoxazolone]	1.9	3.73	54	15	> 10	> 10	3.3 to 10	reversed the effect of MK-801	reversed the effect of MK-801	reversed the effect of MK-801	reversed the effect of MK-801	inhibited MK-801-induced disruption in PPI	did not induce detectable motor impairments				
COc1ccc(-c2cc3onc(-c4ccncc4)c3c(=O)n2C)cc1 [MMPIP, 6-(4-Methoxyphenyl)-5-methyl-3-(4-pyridinyl)-isoxazolo(4,5-c)pyridin-4(5H)-one]	13.5	9.85	69.6	30	> 10	> 10	< 1.1						did not induce detectable motor impairments	no effect	no effect	137 % of control	not antagonized
